According to patent publication US20250206732A1, “COMPOUNDS AND METHODS FOR THE TARGETED DEGRADATION OF KRAS” (Arvinas Operations, Inc., priority 2022, published 2025):

Assays:
AsPC-1 HiBiT-KRASG12D = biological target: T1, AsPC-1 HiBiT-KRASG12D (Homo sapiens, UniProt P01116, G12D); assay: HiBiT degradation assay (G12D), AsPC-1 HiBiT-KRASG12D cells; format: cell-based; conditions: 24 hours treatment; for Dmax: ASPC1, AsPC-1 HiBiT-KRASG12D cells, maximum degradation observed; for DC50: AsPC-1 HiBiT-KRASG12D cells, HiBiT luminescence
T1 construct: insert the HiBiT tag onto the N-terminus of one or more of the endogenous KRAS alleles; endogenous in cells; host or cells: AsPC-1 (ATCC CRL-1682), CRISPR-Cas9 knock-in clone, one tagged allele
T1 sequence (P01116 1-188 isoform P01116-2 G12D): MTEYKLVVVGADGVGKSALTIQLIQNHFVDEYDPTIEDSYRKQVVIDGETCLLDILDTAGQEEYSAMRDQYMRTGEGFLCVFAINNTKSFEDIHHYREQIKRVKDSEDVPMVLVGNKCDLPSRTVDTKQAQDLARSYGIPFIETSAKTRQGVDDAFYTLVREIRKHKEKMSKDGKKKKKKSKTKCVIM
Method in brief: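 Steps: treat HiBiT-KRASG12D AsPC-1 cells with compound for 24 hours; add alamar blue to 1× and incubate 4 hours to assess viability; wash with PBS; add HiBiT lytic detection reagent, incubate 45 minutes at room temperature; read luminescence. Viability fluorescence is normalized to DMSO wells.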

SW1573 HiBiT-KRASG12C = biological target: T2, SW1573 HiBiT-KRASG12C (Homo sapiens, UniProt P01116, G12C); assay: HiBiT degradation assay (G12C), SW1573 HiBiT-KRASG12C cells; format: cell-based; conditions: 24 hours treatment; for Dmax: maximum degradation observed;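 for SW1573 HiBiT-KRASG12C DC50 (nM): Letter grades: C is 1000 to 3000 nM and D is above 3000 nM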
T2 construct: expressed in transfected cells
T2 sequence (P01116 1-188 isoform P01116-2 G12C): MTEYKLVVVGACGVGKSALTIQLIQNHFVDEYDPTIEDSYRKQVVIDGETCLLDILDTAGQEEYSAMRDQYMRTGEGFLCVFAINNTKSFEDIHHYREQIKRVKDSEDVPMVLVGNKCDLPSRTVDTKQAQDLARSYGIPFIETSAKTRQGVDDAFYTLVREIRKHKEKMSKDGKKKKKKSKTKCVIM
Experimental: Reagents. SW1573 (CRL-2170), AsPC-1 (CRL-1682), and SW620 (CCL-227) cells were purchased from ATCC. SW1573 cells are homozygous for the G12C mutation in KRAS, AsPC-1 cells are homozygous for the G12D mutation, and SW620 cells are homozygous for the G12V mutation. SW1573 cells were cultured in DMEM+F12+Glutamax (+Sodium Bicarbonate, +sodium pyruvate, ThermoFisher scientific, #10565) supplemented with 10% FBS (ThermoFisher scientific, #2060357) and 1% Antibiotic-Antimycotic (ThermoFisher scientific, #15240096). AsPC-1 cells were cultured in GIBCO RPMI-1640 (ThermoFisher scientific, catalog #61870-036 with Glutamax, No HEPES, No Na Pyruvate) supplemented with 10% FBS (ThermoFisher scientific, catalog #2060357) and 1× Penicillin-Streptomycin (ThermoFisher scientific, catalog #15140122, 10000 U/ml, 100×). SW620 cells were cultured in DMEM Glutamax (ThermoFisher scientific, catalog #10566016) supplemented with 10% FBS (ThermoFisher scientific, catalog #2060357) and 1× Penicillin-Streptomycin (ThermoFisher scientific, catalog #15140122, 10000 U/ml, 100×). For degradation assays, 384 well plates were used. Alamar blue was purchased from ThermoFisher scientific (A50101) and used according to manufacturer instructions. The Nano-Glo® HiBiT Lytic Detection System and Nano-Glo® HiBiT Blotting System were purchased from Promega (#N3050 and #N2410) and used according to manufacturer instructions.
HiBiT-tagged cell line generation. To create the SW1573 HiBiT-KRASG12C cell line, the nucleotide sequence encoding the 11 amino acid HiBiT tag from Promegal was appended to the N-terminus of the KRASG12C coding sequence. This synthesized DNA was cloned into a modified pcDNA3.1 vector under the control of the thymidine kinase (TK) promoter. This HiBiT-KRASG12C expressing plasmid was transfected into parental SW1573 cells and colonies were selected using 400 μg/mL zeocin. The resulting clonal lines were screened for expression of HiBiT-KRASG12C protein using Nano-Glo® HiBiT Blotting System. A luminescent band of the correct size for HiBiT-KRASG12C was detected in several clones. Clone E6 was selected for further studies.
HiBiT degradation assays (G12C and G12D). Either SW1573 HiBiT-KRasG12C or AsPC-1 HiBiT-KRasG12D cells were plated at 9000 or 15,000 cells/well in a 384 well plate (Corning #3770). Compounds of the present disclosure and positive controls were diluted in the appropriate cell media and applied to the plated cells resulting in a final concentration titration of 10 μM to 508 pM in 0.5% DMSO. Gambogic acid was used as a positive control for cytotoxicity and titrated from 10 μM to 78 nM. All assays were performed in triplicate. Cells were treated with compounds for 24 hours at 37° C. in an incubator containing 5% CO2. Following treatment, alamar blue was used to determine if any compounds led to a loss in cell viability after 24 hours. The 10× alamar blue reagent was added to a final concentration of 1× as recommended by the manufacturer and cells were returned to the incubator for 4 hours. Plates were then allowed to equilibrate to room temperature and fluorescence was measured using a Perkin-Elmer EnVision. After completion of the fluorescence read, the liquid from each well was removed and the cells were washed with PBS. The Nano-Glo® HiBiT detection reagent was prepared according to the manufacturer's instructions and added to each well after the PBS wash was removed. Following incubation at room temperature for 45 minutes, the luminescence was read using the ultra-sensitive luminescence aperture on the Envision instrument.
Data analysis. Fluorescence values from the alamar blue treatment were normalized to the DMSO-only control for each compound titration. […]

Row | SMILES | Dmax (AsPC-1 HiBiT-KRASG12D) [%] | DC50 (AsPC-1 HiBiT-KRASG12D) [nM] | DC50 (SW1573 HiBiT-KRASG12C; HiBiT luminescence) [nM] | Dmax (SW1573 HiBiT-KRASG12C) [%] | SW1573 HiBiT-KRASG12C DC50 (nM) (SW1573 HiBiT-KRASG12C; HiBiT luminescence)
1 | Cc1ncsc1-c1ccc([C@H](C)NC(=O)[C@@H]2C[C@@H](O)CN2C(=O)[C@@H](c2cc(OCC3CCN(CCOc4nc(N5CC6CCC(C5)N6)c5cnc(-c6cc(O)cc(Cl)c6C(C)C)c(F)c5n4)CC3)no2)C(C)C)cc1 [Compound 41, (2S,4R)-1-[(2R)-2-[3-({1-[2-({7-[3-chloro-5-hydroxy-2-(propan-2-yl)phenyl]-4-{3,8-diazabicyclo[3.2.1]octan-3-yl}-8-fluoropyrido[4,3-d]pyrimidin-2-yl}oxy)ethyl]piperidin-4-yl}methoxy)-1,2-oxazol-5-yl]-3-methylbutanoyl]-4-hydroxy-N-[(1S)-1-[4-(4-methyl-1,3-thiazol-5-yl)phenyl]ethyl]pyrrolidine-2-carboxamide] | 20 to 60 | < 600 | > 3000 | 20 to 60 | –
2 | CCc1cccc2cc(O)cc(-c3ncc4c(N5CC6CCC(C5)N6)nc(OC[C@]56CCCN5[C@@H](COC(=O)N5CCN(c7cc([C@@H](C(=O)N8C[C@H](O)C[C@H]8C(=O)N[C@@H](C)c8ccc(-c9scnc9C)cc8)C(C)C)on7)CC5)CC6)nc4c3F)c12 [Compound 6] | < 20 | 1000 to 3000 | > 3000 | – | –
3 | CCc1cccc2cc(O)cc(-c3ncc4c(N5CC6CCC(C5)N6)nc(OC[C@@]56CCCN5[C@H](COCC(=O)N[C@H](C(=O)N5C[C@H](O)C[C@H]5C(=O)N[C@@H](C)c5ccc(-c7scnc7C)cc5)C(C)(C)C)CC6)nc4c3F)c12 [Compound 2, (2S,4R)-1-[(2S)-2-(2-{[(3S,7aS)-7a-{[(4-{3,8-diazabicyclo[3.2.1]octan-3-yl}-7-(8-ethyl-3-hydroxynaphthalen-1-yl)-8-fluoropyrido[4,3-d]pyrimidin-2-yl)oxy]methyl}-hexahydro-1H-pyrrolizin-3-yl]methoxy}acetamido)-3,3-dimethylbutanoyl]-4-hydroxy-N-[(1S)-1-[4-(4-methyl-1,3-thiazol-5-yl)phenyl]ethyl]pyrrolidine-2-carboxamide] | 80 to 100 | < 600 | 1000 to 3000 | 20 to 60 | –
4 | C#Cc1c(F)ccc2cc(O)cc(-c3ncc4c(N5CC6CCC(C5)N6)nc(OCCN5CCC(COc6cc([C@H](C(=O)N7C[C@H](O)C[C@H]7C(=O)N[C@@H](C)c7ccc(-c8scnc8C)cc7)C(C)C)on6)CC5)nc4c3F)c12 [Compound 39, (2S,4R)-1-[(2R)-2-{3-[(1-{2-[(4-{3,8-diazabicyclo[3.2.1]octan-3-yl}-7-(8-ethynyl-7-fluoro-3-hydroxynaphthalen-1-yl)-8-fluoropyrido[4,3-d]pyrimidin-2-yl)oxy]ethyl}piperidin-4-yl)methoxy]-1,2-oxazol-5-yl}-3-methylbutanoyl]-4-hydroxy-N-[(1S)-1-[4-(4-methyl-1,3-thiazol-5-yl)phenyl]ethyl]pyrrolidine-2-carboxamide] | 80 to 100 | < 600 | 1000 to 3000 | 20 to 60 | –
5 | Cc1ccc2[nH]ncc2c1-c1ncc2c(N3CC4CCC(C3)N4)nc(OCCN3CCC(COc4cc([C@H](C(=O)N5C[C@H](O)C[C@H]5C(=O)N[C@@H](C)c5ccc(-c6scnc6C)cc5)C(C)C)on4)CC3)nc2c1F [Compound 3, (2S,4R)-1-[(2R)-2-[3-[[1-[2-[4-(3,8-diazabicyclo[3.2.1]octan-3-yl)-8-fluoro-7-(5-methyl-1H-indazol-4-yl)pyrido[4,3-d]pyrimidin-2-yl]oxyethyl]-4-piperidyl]methoxy]isoxazol-5-yl]-3-methyl-butanoyl]-4-hydroxy-N-[(1S)-1-[4-(4-methylthiazol-5-yl)phenyl]ethyl]pyrrolidine-2-carboxamide] | – | > 3000 | > 3000 | – | –
6 | Cc1ncsc1-c1ccc([C@H](C)NC(=O)[C@@H]2C[C@@H](O)CN2C(=O)[C@@H](c2cc(OCC3CCN(CCOc4nc(N5CC6CCC(C5)N6)c5cnc(-c6cc(O)cc7ccccc67)c(F)c5n4)CC3)no2)C(C)C)cc1 [Compound 22, (2S,4R)-1-[(2R)-2-[3-[[1-[2-[4-(3,8-diazabicyclo[3.2.1]octan-3-yl)-8-fluoro-7-(3-hydroxy-1-naphthyl)pyrido[4,3-d]pyrimidin-2-yl]oxyethyl]-4-piperidyl]methoxy]isoxazol-5-yl]-3-methyl-butanoyl]-4-hydroxy-N-[(1S)-1-[4-(4-methylthiazol-5-yl)phenyl]ethyl]pyrrolidine-2-carboxamide] | 20 to 60 | 600 to 1000 | – | – | C/D*
7 | CCc1cccc2cc(O)cc(-c3ncc4c(N5CC6CCC(C5)N6)nc(OCCN5CCC(CCOCC(=O)N[C@H](C(=O)N6C[C@H](O)C[C@H]6C(=O)N[C@@H](C)c6ccc(-c7scnc7C)cc6)C(C)(C)C)CC5)nc4c3F)c12 [Compound 13] | 80 to 100 | 600 to 1000 | > 3000 | – | –
8 | C#Cc1cccc2cc(O)cc(-c3ncc4c(N5CC6CCC(C6)C5)nc(OCCN5CCC(COCC(=O)N[C@H](C(=O)N6C[C@H](O)C[C@H]6C(=O)N[C@@H](C)c6ccc(-c7scnc7C)cc6)C(C)(C)C)CC5)nc4c3F)c12 [Compound 17, (2S,4R)-1-[(2S)-2-[[2-[[1-[2-[4-(3-azabicyclo[3.2.1]octan-3-yl)-7-(8-ethynyl-3-hydroxy-1-naphthyl)-8-fluoro-pyrido[4,3-d]pyrimidin-2-yl]oxyethyl]-4-piperidyl]methoxy]acetyl]amino]-3,3-dimethyl-butanoyl]-4-hydroxy-N-[(1S)-1-[4-(4-methylthiazol-5-yl)phenyl]ethyl]pyrrolidine-2-carboxamide] | – | > 3000 | 1000 to 3000 | 20 to 60 | –
9 | CCc1cccc2cc(O)cc(-c3ncc4c(N5CC6CCC(C5)N6)nc(OC[C@@]56CCCN5[C@H](COC(=O)N5CCN(c7cc([C@H](C(=O)N8C[C@H](O)C[C@H]8C(=O)N[C@@H](C)c8ccc(-c9scnc9C)cc8)C(C)C)on7)CC5)CC6)nc4c3F)c12 [Compound 5] | 80 to 100 | < 600 | ≤ 600 | 60 to 80 | –
10 | CCc1cccc2cccc(-c3ncc4c(N5CC6CCC(C5)N6)nc(OC[C@]56CCCN5[C@@H](COC(=O)N5CCN(c7cc([C@H](C(=O)N8C[C@H](O)C[C@H]8C(=O)N[C@@H](C)c8ccc(-c9scnc9C)cc8)C(C)C)on7)CC5)CC6)nc4c3F)c12 [Compound 34, [(3R,7aR)-7a-{[(4-{3,8-diazabicyclo[3.2.1]octan-3-yl}-7-(8-ethylnaphthalen-1-yl)-8-fluoropyrido[4,3-d]pyrimidin-2-yl)oxy]methyl}-hexahydro-1H-pyrrolizin-3-yl]methyl 4-{5-[(2R)-1-[(2S,4R)-4-hydroxy-2-{[(1S)-1-[4-(4-methyl-1,3-thiazol-5-yl)phenyl]ethyl]carbamoyl}pyrrolidin-1-yl]-3-methyl-1-oxobutan-2-yl]-1,2-oxazol-3-yl}piperazine-1-carboxylate] | 80 to 100 | < 600 | > 3000 | – | –
